Source: ChEMBL document CHEMBL1201862, “PubChem BioAssay data set” (2004)
Structures can show the parent of a compound that is named as a salt.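 Growth conditions: 96-well plates. Treatment: test compound, 48 hours, 5 concentrations. Analysis: linear interpolation between bracketing concentrations; unreached endpoints set to highest concentration. GI50 is the concentration that inhibits growth by half.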 Activity calls are given as the source filed them. No stated cut-off is given here; in the data, active = GI50 up to about 1.1 µM and inactive = higher.

Tests used:
Test in all cases: NCI-60 cell line screen, 48 h
[1] = tested on: SNB-78
[2] = tested on: HOP-18
[3] = tested on: KM-20L2
[4] = tested on: RXF 631
[5] = tested on: LXFL 529
[6] = tested on: PC-3
[7] = tested on: Hs-578T
[8] = tested on: MDA-MB-435
[9] = tested on: DU-145

Row | SMILES | GI50 [1] | GI50 [2] | GI50 [3] | GI50 [4] | GI50 [5] | GI50 [6] | GI50 [7] | GI50 [8] | GI50 [9]
1 | CCC12CCC(O)C1N(C)CCC2Sc1ccccc1 (stereo not given) | > 100 µM (inactive) | 46.7 µM (inactive) | 41.3 µM (inactive) | > 100 µM (inactive) | – | – | – | – | –
2 | O=C1c2ccccc2C(=O)c2nc3c(O)cccc3cc21 | – | 24.9 µM (inactive) | 26.7 µM (inactive) | 36.2 µM (inactive) | 4.57 µM (inactive) | – | – | – | –
3 | O=C(c1cc2ccccc2[nH]1)C(O)(c1cc2ccccc2[nH]1)c1cc2ccccc2[nH]1 | – | – | > 246 µM (inactive) | > 246 µM (inactive) | > 246 µM (inactive) | – | – | – | –
4 | NCCCCNCCCNC(=O)c1nc(-c2csc(CCN)n2)sc1Cl | > 100 µM (inactive) | – | > 100 µM (inactive) | – | 17.9 µM (inactive) | – | – | – | –
5 | CN1CCc2cc(O)c3cc2C1Cc1ccc(cc1)Oc1cc(ccc1O)CC1c2c(cc4c(c2O3)OCO4)CCN1C (stereo not given) | > 100 µM (inactive) | – | 18.2 µM (inactive) | – | – | – | – | – | –
6 | COc1ccc(-c2ccccc2)c(N/N=C2\CCCNC2=O)c1 | 93.5 µM (inactive) | > 100 µM (inactive) | > 100 µM (inactive) | – | > 100 µM (inactive) | – | – | – | –
7 | COc1ccc2c(c1)CCc1c(CO)c(COC(=O)NC(C)C)n(C)c1-2 | 4.38 µM (inactive) | 1.55 µM (inactive) | 6.59 µM (inactive) | 13 µM (inactive) | 3.21 µM (inactive) | – | – | – | –
8 | COC(=O)c1cc(CC(C)C)c2c(c1)[nH]c1ccccc12 | – | – | > 100 µM (inactive) | – | > 100 µM (inactive) | – | – | – | –
9 | Nc1ncn([C@H]2C[C@H](O)[C@@H](CO)O2)c(=O)n1 [DECITABINE] | 373 µM (inactive) | > 99.1 µM (inactive) | > 375 µM (inactive) | – | – | 9.57 µM (inactive) | 3.32 µM (inactive) | 2.49 µM (inactive) | 8.79 µM (inactive)
10 | O=C1C(Cl)=C(Cl)C(=O)N1C1C2CC3CC(C2)CC1C3 (stereo not given) | > 100 µM (inactive) | > 100 µM (inactive) | > 100 µM (inactive) | – | 47.5 µM (inactive) | – | – | – | –
11 | CNNCc1ccc(C(=O)NC(C)C)cc1 [PROCARBAZINE HYDROCHLORIDE] | > 500 µM (inactive) | 138 µM (inactive) | 380 µM (inactive) | – | > 500 µM (inactive) | > 500 µM (inactive) | > 500 µM (inactive) | > 379 µM (inactive) | > 500 µM (inactive)
12 | CC/C(SC)=[N+](\C)[O-] | > 100 µM (inactive) | > 100 µM (inactive) | > 100 µM (inactive) | > 100 µM (inactive) | > 100 µM (inactive) | – | – | – | –
13 | O=C(O)C1c2ccccc2C(C(=O)O)c2ccccc21 (stereo not given) | > 100 µM (inactive) | > 100 µM (inactive) | > 100 µM (inactive) | – | > 100 µM (inactive) | – | – | – | –
14 | O=C(CCc1nnc2s/c(=C\c3ccccc3Cl)c(=O)n12)Nc1cc(Cl)ccc1Cl | > 100 µM (inactive) | > 100 µM (inactive) | – | – | > 100 µM (inactive) | – | – | – | –
15 | CCCCc1nccc2c(C)c3[nH]c4ccccc4c3cc12 | 5.64 µM (inactive) | 0.486 µM (active) | 2.86 µM (inactive) | – | – | – | – | – | –
16 | CC1=NOC(=O)/C1=C/c1ccc([N+](=O)[O-])cc1 | > 100 µM (inactive) | > 100 µM (inactive) | > 100 µM (inactive) | > 100 µM (inactive) | – | – | – | – | –
17 | CN(C)C(=O)N(CCCl)N=O | > 100 µM (inactive) | > 100 µM (inactive) | > 100 µM (inactive) | – | – | – | – | – | –
18 | O=c1[nH]c(=O)n([C@H]2CCCO2)cc1F | > 1000 µM (inactive) | 692 µM (inactive) | 824 µM (inactive) | – | – | 2510 µM (inactive) | 3230 µM (inactive) | 615 µM (inactive) | 748 µM (inactive)
19 | CNc1ccc2ncccc2c1[N+](=O)[O-] | > 100 µM (inactive) | > 100 µM (inactive) | > 100 µM (inactive) | > 100 µM (inactive) | > 100 µM (inactive) | – | – | – | –
20 | CC1=C(O)C(=O)c2cn(C)cc2C1=O | > 100 µM (inactive) | > 100 µM (inactive) | > 100 µM (inactive) | – | > 100 µM (inactive) | – | – | – | –
21 | O=C1C2C3C=CC(C2C(=O)N1CO)C1C2C(=O)N(CO)C(=O)C2C31 (stereo not given) | > 100 µM (inactive) | 43.4 µM (inactive) | > 31.6 µM (inactive) | > 54.6 µM (inactive) | > 81.1 µM (inactive) | – | – | – | –
22 | O=C(CC1(O)C(=O)Nc2ccc(Br)cc21)c1cccc([N+](=O)[O-])c1 (stereo not given) | 37.8 µM (inactive) | 23.6 µM (inactive) | 74.6 µM (inactive) | > 100 µM (inactive) | 22.5 µM (inactive) | – | – | – | –

Row | SMILES | GI50 [1] | GI50 [2] | GI50 [3] | GI50 [4] | GI50 [5] | GI50 [6] | GI50 [7] | GI50 [8] | GI50 [9]
23 | N#CC(C#N)SCc1ccccc1 | 33 µM (inactive) | – | 32.3 µM (inactive) | – | 33.7 µM (inactive) | 2.79 µM (inactive) | 26.5 µM (inactive) | 17.6 µM (inactive) | 22.9 µM (inactive)
24 | O=c1ccc(=O)c2c(=O)c3ccccc3c(=O)c1=2 | 60.5 µM (inactive) | – | – | – | > 100 µM (inactive) | – | – | – | –
25 | CC(C)(C)/N=C/N1C=Cc2nc3ccccc3cc2C1 | > 100 µM (inactive) | > 100 µM (inactive) | > 100 µM (inactive) | > 100 µM (inactive) | > 100 µM (inactive) | – | – | – | –
26 | CC1=CC2CC(C)C1(C)CCc1ccoc12 (stereo not given) | > 100 µM (inactive) | > 100 µM (inactive) | > 100 µM (inactive) | > 100 µM (inactive) | > 100 µM (inactive) | – | – | – | –
27 | CC1CC(c2ccc(Cl)c(Cl)c2)=Nc2ccccc2S1 (stereo not given) | > 100 µM (inactive) | > 100 µM (inactive) | > 100 µM (inactive) | – | > 100 µM (inactive) | – | – | – | –
28 | Cc1ccc(C2C(Cl)C(=O)N2NC(=O)c2ccc(N)cc2)cc1 (stereo not given) | 5.46 µM (inactive) | – | 23.8 µM (inactive) | – | 15.5 µM (inactive) | – | – | – | –
29 | O=C1OC(c2ccccc2)=N/C1=C/NC(Cc1c[nH]c2ccccc12)C(=O)O (stereo not given) | > 100 µM (inactive) | – | > 100 µM (inactive) | – | > 100 µM (inactive) | – | – | – | –
30 | CN1c2ccccc2N(C)C23N(C)c4ccccc4N(C)C12N(C)c1ccccc1N3C (stereo not given) | – | – | > 100 µM (inactive) | > 100 µM (inactive) | – | – | – | – | –
31 | COc1ccc2[nH]c3c(c2c1)[C@H]1CCC(C(C)(C)C)C[C@H]1[C@H]1C(=O)N(c2ccccc2)C(=O)[C@@H]31 (stereo not given in full) | – | 25.6 µM (inactive) | > 51.4 µM (inactive) | 6.15 µM (inactive) | 69.3 µM (inactive) | – | – | – | –
32 | O=S1(=O)C(=C(c2ccccc2)c2ccccc2)S(=O)(=O)c2ccccc21 | 39.8 µM (inactive) | 51.6 µM (inactive) | > 100 µM (inactive) | – | – | – | – | – | –
33 | O=c1cc(-c2ccc(Cl)cc2)oc2cc(OCCCOc3ccc4c(=O)cc(-c5ccc(Cl)cc5)oc4c3)ccc12 | > 100 µM (inactive) | > 100 µM (inactive) | > 100 µM (inactive) | > 100 µM (inactive) | > 100 µM (inactive) | – | – | – | –
34 | COc1ccc(-c2cc(O)c3cc(Cl)ccc3n2)cc1 | > 100 µM (inactive) | 54.5 µM (inactive) | > 100 µM (inactive) | > 100 µM (inactive) | > 100 µM (inactive) | – | – | – | –
35 | COC(=O)C1=C(C[S+]([O-])c2ccccc2[N+](=O)[O-])ON(C)C1c1ccccc1 (stereo not given) | 82 µM (inactive) | 52.2 µM (inactive) | 21.5 µM (inactive) | – | 42 µM (inactive) | – | – | – | –
36 | [O-]/N=[N+](/[O-])C1CCCCC1=[N+]1CCOCC1 (stereo not given) | > 100 µM (inactive) | – | – | – | > 100 µM (inactive) | – | – | – | –
37 | CC(=O)c1sc(Nc2nnc(-c3ccc(-c4nnc(Nc5nc(C)c(C(C)=O)s5)o4)cc3)o2)nc1C | > 100 µM (inactive) | > 100 µM (inactive) | > 100 µM (inactive) | – | > 100 µM (inactive) | – | – | – | –
38 | C1=C(c2ccccc2)SC(N2CCCCC2)S1 (stereo not given) | > 100 µM (inactive) | – | > 100 µM (inactive) | – | 77.3 µM (inactive) | – | – | – | –
39 | C[n+]1c2ccccc2c(NC(CCCNC(=N)N)C(=O)O)c2ccccc21 (stereo not given) | > 100 µM (inactive) | > 100 µM (inactive) | > 100 µM (inactive) | – | > 100 µM (inactive) | – | – | – | –
40 | NC1c2c(Br)sc(N3CCCC3)c2C(=O)C1O (stereo not given) | – | – | – | – | – | > 50 µM (inactive) | > 50 µM (inactive) | > 50 µM (inactive) | > 50 µM (inactive)
41 | COc1ccc(/C=C2/CSCC3=C2N=C(S)NC3c2ccc(OC)c(OC)c2OC)c(OC)c1OC (stereo not given) | – | – | – | – | – | 12.1 µM (inactive) | > 100 µM (inactive) | 7.82 µM (inactive) | 38.3 µM (inactive)
42 | CCCCCOc1ccc(NC2=C(Cl)C(=O)c3c(O)ccc(O)c3C2=O)cc1 | – | – | – | – | – | 5.25 µM (inactive) | 1.91 µM (inactive) | 2.24 µM (inactive) | > 10 µM (inactive)
43 | CO/C(=C/C(=O)C(Cl)(Cl)Cl)CC/C(=C\C(=O)C(Cl)(Cl)Cl)OC | – | – | – | – | – | 27.4 µM (inactive) | 35.9 µM (inactive) | 19.8 µM (inactive) | 25.1 µM (inactive)
